Experimental data: PMC8365446, “Structural determinants and distribution of phosphate specificity in ribonucleotide reductases” (The Journal of Biological Chemistry, 2021)
Read-outs that look alike come from different tables or passages of the source.

How the values were obtained:
TVNrdJm [1] = tested on: T1, TVNrdJm; details: read-out: apparent KM; effector dTTP, adenosylcobalamin, TCEP, 20 mmol L^−1 MgCl2, Tris pH 8.0, 40 °C; apparent fitted value, called lower boundary by authors (substrate inhibition omitted)
T1 construct: gene nrdJ

TVNrdJm [2] = tested on: T2, TVNrdJm; assay: HPLC quantification of deoxyribonucleotide, Michaelis-Menten fit; type: biochemical, Thermus virus P74-23; details: effector dTTP, adenosylcobalamin, TCEP, 20 mmol L^−1 MgCl2, Tris pH 8.0, 40 °C
T2 construct: gene nrdJ; monomeric-type class II RNR; pET28b(+) NdeI/HindIII, E. coli BL21(DE3); apical loop P-A-G-R with A67, G68, R69

| SMILES | Km (TVNrdJm [1]) [mM] | Km (TVNrdJm [2]) [µM] |
| --- | --- | --- |
| Nc1nc2c(ncn2[C@@H]2O[C@H](COP(=O)(O)OP(=O)(O)O)[C@@H](O)[C@H]2O)c(=O)[nH]1 [GDP] | > 6.85 | – |
| Nc1nc2c(ncn2[C@@H]2O[C@H](COP(=O)(O)OP(=O)(O)OP(=O)(O)O)[C@@H](O)[C@H]2O)c(=O)[nH]1 [GTP] | – | 300 ± 60 |
